# Laboratory results as given in patent US20240174680A1, “CDK2 INHIBITORS AND METHODS OF USING THE SAME” (Cedilla Therapeutics, Inc., priority 2021, published 2024).
# Biological target: CDK2/Cyclin E1 (Homo sapiens, UniProt P24941)
# Assay: CDK2/Cyclin E1 Caliper LabChip EZ Reader mobility shift assay
# Format: biochemical
# Parameters: purchased Eurofins 14-475
# Settings: read-out: Caliper Assay (CDK2/CCNE1): IC50
# Outline: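 Substrate-to-product conversion of fluorescent peptide (1.5 μM final) read by capillary electrophoresis after 100 min reaction, EDTA-quenched. Enzyme (2.5 nM final) and ATP (100 μM final) were preincubated 30 min with inhibitor dilutions first. % activity vs concentration fitted four-parameter for IC50.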
row,IC50 [nM],SMILES
1,10 to 100,CNC(=O)[C@@H](NC(=O)C1(F)CN(C(=O)c2cnn(Cc3ccccc3)c2)CC12CN(C(=O)[C@H]1CC1(C)C)C2)[C@@H](C)OCC1CCCCC1 (stereo partly shown) [I-501]
2,100 to 1000,C[C@@H](OCc1ccccc1)[C@H](NC(=O)C1CN(C(=O)c2cnn(Cc3ccccc3)c2)CC12CN(C(=O)[C@H]1CC1(C)C)C2)C(=O)NCC#CCN (stereo partly shown) [I-28]
3,1000 to 10000,C[C@@H](OCC12CCC(CC1)OC2)[C@H](NC(=O)[C@@H]1CN(C(=O)c2cnco2)CC12CN(C(=O)C(C)(C)C1CC1)C2)C(C)(C)O [I-448]
4,1000 to 10000,CC1(C)C[C@@H]1C(=O)N1CC2(CN(C(=O)c3cnn(Cc4ccccc4)c3)C[C@H]2C(=O)NCc2nc3ccccc3o2)C1 [I-230]
5,1000 to 10000,Cc1cc(C(=O)N2CC(C(=O)N[C@H](C(=O)N3CCCCC3)[C@@H](C)OCC3CCCCC3)C3(C2)CN(C(=O)[C@H]2CC2(C)C)C3)[nH]n1 (stereo partly shown) [I-264]
6,≤ 10,C[C@@H](OCC1CCCCC1)[C@@H](COC1CCCCC1)NC(=O)[C@@H]1CN(C(=O)c2cncs2)CC12CN(C(=O)[C@H]1CC1(C)C)C2 [I-308]
7,1000 to 10000,CNC(=O)[C@@H](NC(=O)[C@@H]1CN(C(=O)c2cncs2)CC12CN(CC1COC1)C2)[C@@H](C)OCC12CCC(CC1)OC2 [I-348]
8,10 to 100,CNC(=O)[C@@H](NC(=O)[C@@H]1CN(C(=O)c2cnn(Cc3ccccc3)c2)CC12CN(C(=O)[C@H]1CC1(C)C)C2)[C@@H](C)OC[C@H]1CC[C@H](OC)CC1 [I-403]
9,1000 to 10000,CNC(=O)[C@@H](NC(=O)[C@@H]1CN(C(=O)c2cnn(Cc3ccccc3)c2)CC12CN(C(=O)C(C)(C)C1CC1)C2)[C@@H](C)OCc1ccccc1 [I-276]
10,≤ 10,C[C@@H](OCC12CCC(CC1)CC2)[C@H](NC(=O)[C@@H]1CN(C(=O)c2cncs2)CC12CN(C(=O)[C@H]1CC1(C)C)C2)C(C)(C)O [I-304]
11,≤ 10,C[C@@H](OCC1CCC(F)(F)CC1)[C@H](NC(=O)[C@@H]1CN(C(=O)c2cncs2)CC12CN(C(=O)[C@H]1CC1(C)C)C2)C(=O)N1CCC(O)CC1 [I-383]
12,≤ 10,C[C@@H](OCC1CCC(F)(F)CC1)[C@@H](COC1CCC(F)(F)CC1)NC(=O)[C@@H]1CN(C(=O)c2cncs2)CC12CN(C(=O)[C@H]1CC1(C)C)C2 [I-315]
13,≤ 10,C[C@@H](OCC1CCC(F)(F)CC1)[C@H](NC(=O)[C@@H]1CN(C(=O)c2cncs2)CC12CN(C(=O)[C@H]1CC1(C)C)C2)C(=O)N1CCC2(CC1)CC2 [I-380]
14,10 to 100,"C[C@@H](OCC1CCOCC1)[C@@H](COC1CCC(F)(F)CC1)NC(=O)[C@@H]1CN(C(=O)c2cncs2)CC12CN(C(=O)C(C)(C)C1CC1)C2 [I-333, (S)-2-(2-cyclopropyl-2-methylpropanoyl)-N-((2R,3R)-1-((4,4-difluorocyclohexyl)oxy)-3-((tetrahydro-2H-pyran-4-yl)methoxy)butan-2-yl)-6-(thiazole-5-carbonyl)-2,6-diazaspiro[3.4]octane-8-carboxamide]"
15,10 to 100,CNC(=O)[C@@H](NC(=O)[C@@H]1CN(C(=O)c2cncs2)CC12CN(C(=O)[C@H]1CC1(C)C)C2)[C@@H](C)OC1C2CC3CC(C2)CC1C3 (stereo partly shown) [I-463]
16,10 to 100,C[C@@H](OCC1CCOCC1)[C@H](NC(=O)[C@@H]1CN(C(=O)c2cncs2)CC12CN(C(=O)[C@H]1CC1(C)C)C2)C(=O)N1CCC(F)(F)CC1 [I-288]
17,1000 to 10000,Cc1ccc2[nH]c(CNC(=O)C3CN(C(=O)c4cnn(Cc5ccccc5)c4)CC34CN(C(=O)[C@H]3CC3(C)C)C4)nc2c1 (stereo partly shown) [I-278]
18,1000 to 10000,CC1(C)C[C@@H]1C(=O)N1CC2(CN(C(=O)c3cnn(Cc4ccccc4)c3)C[C@@H]2C(=O)Nc2ccc(Cc3ccccc3)nc2)C1 [I-168]
19,1000 to 10000,CO[C@H](C)[C@H](NC(=O)[C@@H]1CN(C(=O)c2cnn(Cc3ccccc3)c2)CC12CN(C(=O)[C@H]1CC1(C)C)C2)C(=O)N1CCC(CN)CC1 [I-306]

# Second part, the molecule before the results:
row,SMILES,IC50 [nM]
1,CO[C@H]1COCC[C@@H]1NC(=O)[C@@H]1CN(C(=O)c2cnn(Cc3ccccc3)c2)CC12CN(C(=O)[C@H]1CC1(C)C)C2 [I-131A],> 10000
2,CNC(=O)[C@@H](NC(=O)[C@H]1CN(C(=O)c2cnn(Cc3ccccc3)c2)CC12CN(C(=O)C1C(C)(C)C1(C)C)C2)[C@@H](C)OCc1ccccc1 [I-89B],> 10000
3,CC1(C)C[C@@H]1C(=O)N1CC2(CN(C(=O)c3cnn(Cc4ccccc4)c3)C[C@@H]2C(=O)N2CCCC(Cc3ccccc3)C2)C1 (stereo partly shown) [I-91B],> 10000
4,CC1(C)C[C@@H]1C(=O)N1CC2(CN(C(=O)c3cnn(Cc4ccccc4)c3)C[C@@H]2C(=O)NCCOCc2ccccc2)C1 [I-96B],> 10000
5,CC1(C)C[C@@H]1C(=O)N1CC2(CN(C(=O)c3cnn(Cc4ccccc4)c3)C[C@@H]2C(=O)NC2CCCN(C(=O)c3ccccc3)C2)C1 (stereo partly shown) [I-59B],> 10000
6,CNC(=O)[C@@H](NC(=O)[C@@H]1CN(C(=O)c2cnn(Cc3ccccc3)c2)CC12CN(C(=O)C1(CCF)CC1)C2)[C@@H](C)OCc1ccccc1 [I-117A],1000 to 10000
7,CNC(=O)[C@@H](NC(=O)[C@H]1CN(C(=O)c2cnn(Cc3ccccc3)c2)CC12CN(C(=O)[C@H]1CC1(C)C)C2)[C@@H](C)OCC1CCCC1 [I-110B],100 to 1000
8,"CNC(=O)[C@@H](NC(=O)[C@@H]1CN(Cc2cnc[nH]2)CC12CN(C(=O)[C@H]1CC1(C)C)C2)[C@@H](C)OCc1ccccc1 [I-77A, (S)-6-((1H-imidazol-5-yl)methyl)-N-((2S,3R)-3-(benzyloxy)-1-(methylamino)-1-oxobutan-2-yl)-2-((S)-2,2-dimethylcyclopropane-1-carbonyl)-2,6-diazaspiro[3.4]octane-8-carboxamide]",> 10000
9,CNC(=O)[C@@H](NC(=O)[C@@H]1CN(C(=O)c2cnc(C3CC3)s2)CC12CN(C(=O)[C@H]1CC1(C)C)C2)[C@@H](C)OCC1CCCCC1 [I-178A],100 to 1000
10,C[C@@H](OCC1CCCCC1)[C@H](NC(=O)C1CN(C(=O)c2cnn(Cc3ccccc3)c2)CC12CN(C(=O)[C@H]1CC1(C)C)C2)C(=O)N1CCCCC1 (stereo partly shown) [I-194 mixture],≤ 10
11,CNC(=O)[C@@H](NC(=O)[C@H]1CN(C(=O)c2cnn(Cc3ccccc3)c2)CC12CN(C(=O)C1(CC3CC3)CC1)C2)[C@@H](C)OCc1ccccc1 [I-116B],> 10000
12,CNC(=O)[C@@H](NC(=O)[C@H]1CN(C(=O)c2cnn(C)c2)CC12CN(C(=O)[C@H]1CC1(C)C)C2)[C@@H](C)OCc1ccccc1 [I-33B],> 10000
13,CNC(=O)[C@@H](NC(=O)[C@@H]1CN(C(=O)c2sc(Cl)nc2C)CC12CN(C(=O)[C@H]1CC1(C)C)C2)[C@@H](C)OCC1CCCCC1 [I-208A],10 to 100
14,CNC(=O)[C@@H](NC(=O)[C@H]1CN(C(=O)c2cncs2)CC12CN(C(=O)CC1CC1)C2)[C@@H](C)OCC1CCCCC1 [I-103B],> 10000
15,CC1(C)C[C@@H]1C(=O)N1CC2(CN(C(=O)c3cnn(Cc4ccccc4)c3)C[C@H]2C(=O)N[C@H]2CCc3cc(Cl)ccc32)C1 [I-133A],1000 to 10000
16,CNC(=O)[C@@H](NC(=O)[C@@H]1CN(C(=O)c2cnn(Cc3ccccc3)c2)CC12CN(C(=O)[C@H]1CC1(C)C)C2)[C@@H](C)OCC(C)(C)C [I-130A],10 to 100
17,CNC(=O)[C@@H](NC(=O)[C@H]1CN(C(=O)c2scnc2C2CCCC2)CC12CN(C(=O)[C@H]1CC1(C)C)C2)[C@@H](C)OCC1CCCCC1 [I-224A],1000 to 10000

row,SMILES,IC50 [nM]
1,CNC(=O)[C@@H](NC(=O)[C@@H]1CN(C(=O)c2sc(COC)nc2C)CC12CN(C(=O)[C@H]1CC1(C)C)C2)[C@@H](C)OCC1CCCCC1 [I-162A],10 to 100
2,CNC(=O)[C@@H](NC(=O)[C@@H]1CN(C(=O)c2cnn(Cc3ccccc3)c2)CC12CN(C(=O)[C@H]1CC1(C)C)C2)[C@@H](C)OCC(C)C [I-137A],100 to 1000
3,CNC(=O)[C@@H](NC(=O)[C@@H]1CN(Cc2cnn(C)c2)CC12CN(C(=O)[C@H]1CC1(C)C)C2)[C@@H](C)OCc1ccccc1 [I-47A],> 10000
4,CNC(=O)[C@@H](NC(=O)[C@@H]1CN(C(=O)c2cnn(CC3CC3)c2)CC12CN(C(=O)CC1CC1)C2)[C@@H](C)OCc1ccccc1 [I-53A],> 10000
5,CNC(=O)[C@@H](NC(=O)[C@H]1CN(Cc2cn[nH]c2)CC12CN(C(=O)[C@H]1CC1(C)C)C2)[C@@H](C)OCc1ccccc1 [I-50B],> 10000
6,CNC(=O)[C@@H](NC(=O)[C@H]1CN(C(=O)c2cnn(Cc3ccccc3)c2)CC12CN(C(=O)CC1(CO)CC1)C2)[C@@H](C)OCc1ccccc1 [I-92B],> 10000
7,CNC(=O)[C@@H](NC(=O)[C@H]1CN(C(=O)c2cnn(Cc3ccccc3)c2)CC12CN(C(=O)[C@H]1CC1(C)C)C2)[C@@H](C)OCC1CCCCC1 [I-123B],100 to 1000
8,CNC(=O)[C@@H](NC(=O)[C@H]1CN(C(=O)C2CCOCC2)CC12CN(C(=O)[C@H]1CC1(C)C)C2)[C@@H](C)OCc1ccccc1 [I-38B],> 10000
9,CNC(=O)[C@@H](NC(=O)[C@H]1CN(C(=O)c2cnn(Cc3ccccc3)c2)CC12CN(C(=O)CC1CC1)C2)[C@@H](C)OCC1CCCCC1 [I-56B],1000 to 10000
10,CNC(=O)[C@@H](NC(=O)[C@H]1CN(C(=O)c2cncs2)CC12CN(C(=O)[C@H]1CC1(C)C)C2)[C@@H](C)OCC1CCCCC1 [I-129B],1000 to 10000
11,CNC(=O)[C@@H](NC(=O)[C@@H]1CN(C(=O)c2cnn(Cc3ccccc3)c2)CC12CN(C(=O)C(C)(C)C#N)C2)[C@@H](C)OCc1ccccc1 [I-76A],1000 to 10000
12,CNC(=O)[C@@H](NC(=O)[C@@H]1CN(C(=O)c2cnn(CC3CCN(C)CC3)c2)CC12CN(C(=O)[C@H]1CC1(C)C)C2)[C@@H](C)OCc1ccccc1 [I-23A],1000 to 10000
13,Cc1noc([C@H](C)NC(=O)[C@@H]2CN(C(=O)c3cnn(Cc4ccccc4)c3)CC23CN(C(=O)[C@H]2CC2(C)C)C3)n1 [I-158A],> 10000
14,CNC(=O)[C@@H](NC(=O)[C@@H]1CN(S(=O)(=O)c2cnn(Cc3ccccc3)c2)CC12CN(C(=O)[C@H]1CC1(C)C)C2)[C@@H](C)OCc1ccccc1 [I-79A],> 10000
15,CC1(C)C[C@@H]1C(=O)N1CC2(CN(C(=O)c3cnn(Cc4ccccc4)c3)C[C@H]2C(=O)N2CCC(Cc3ccccc3)CC2)C1 [I-58A],100 to 1000
16,CNC(=O)[C@@H](NC(=O)[C@H]1CN(C(=O)c2cnn(Cc3ccccc3)c2)CC12CN(C(=O)C(C)C)C2)[C@@H](C)OCc1ccccc1 [I-54B],> 10000
